In PubChem BioAssay (NCI):
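These data come from cells grown in 96-well plates and exposed to compound for 48 hours at five concentrations. Abbreviation: GI50, concentration required for 50% inhibition of growth. At the TGI there is no net growth.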

Columns and labels:
Assay in all cases: inhibition of tumour cell growth, NCI panel, 48 h
NCI-H522 lung = tested on: NCI-H522 lung
DU-145 prostate = tested on: DU-145 prostate
MDA-MB-231 breast = tested on: MDA-MB-231 breast
SF-539 CNS = tested on: SF-539 CNS
MOLT-4 leukemia = tested on: MOLT-4 leukemia
SW-620 colon = tested on: SW-620 colon
OVCAR-8 ovarian = tested on: OVCAR-8 ovarian
A549 NSCLC = tested on: A549 NSCLC
HCT-116 colon = tested on: HCT-116 colon
OVCAR-5 ovarian = tested on: OVCAR-5 ovarian

CCCC(=O)Nc1cc(/C=C/C(=O)N2CC(CCl)c3c2cc(OC(C)=O)c2[nH]cc(C)c32)n(C)c1 (centres undefined)
TGI (NCI-H522 lung): 4.26e-05 µM
TGI (DU-145 prostate): 0.00453 µM
TGI (MDA-MB-231 breast): > 0.25 µM
TGI (SF-539 CNS): 0.000107 µM
TGI (MOLT-4 leukemia): 0.00436 µM
TGI (SW-620 colon): > 0.25 µM
TGI (OVCAR-8 ovarian): 0.000858 µM

COc1ccc(-n2nc(C(=O)c3ccccc3)c3nn4c(=O)cc(-c5ccccc5)nc4nc32)cc1
GI50 (NCI-H522 lung): 23.1 µM
TGI (NCI-H522 lung): 81.2 µM
GI50 (A549 NSCLC): 39.2 µM
TGI (A549 NSCLC): > 100 µM
GI50 (DU-145 prostate): 49.2 µM
TGI (DU-145 prostate): > 100 µM
GI50 (MDA-MB-231 breast): 28.7 µM
TGI (MDA-MB-231 breast): > 100 µM
GI50 (SF-539 CNS): 41.8 µM
TGI (SF-539 CNS): > 100 µM
GI50 (MOLT-4 leukemia): 34.8 µM
TGI (MOLT-4 leukemia): > 100 µM
GI50 (SW-620 colon): 44.3 µM
TGI (SW-620 colon): > 100 µM
GI50 (OVCAR-8 ovarian): 40.1 µM
TGI (OVCAR-8 ovarian): > 100 µM
GI50 (HCT-116 colon): > 100 µM
TGI (HCT-116 colon): > 100 µM

C#C[C@]1(O)[C@@H](CO)O[C@@H](n2ccc(=O)[nH]c2=O)[C@@H]1O
TGI (NCI-H522 lung): 1.64 µM
TGI (A549 NSCLC): > 100 µM
TGI (DU-145 prostate): 0.695 µM
TGI (MDA-MB-231 breast): 3.77 µM
TGI (SF-539 CNS): 1.39 µM
TGI (SW-620 colon): > 100 µM
TGI (OVCAR-8 ovarian): > 100 µM
TGI (OVCAR-5 ovarian): > 100 µM

COc1ccc(-n2nnc3c(C#N)c(C)c(-c4ccccc4)n3c2=O)cc1
TGI (A549 NSCLC): > 38.8 µM
TGI (DU-145 prostate): 8 µM
TGI (MDA-MB-231 breast): > 79.1 µM
TGI (SF-539 CNS): > 20 µM
TGI (MOLT-4 leukemia): > 58.1 µM
TGI (SW-620 colon): > 100 µM
TGI (OVCAR-8 ovarian): > 70.8 µM
TGI (HCT-116 colon): 2.65 µM
TGI (OVCAR-5 ovarian): > 57.6 µM

O=C1/C(=C/c2ccc([N+](=O)[O-])cc2)Sc2scc(-c3cccc([N+](=O)[O-])c3)[n+]21
TGI (NCI-H522 lung): 2.69 µM
TGI (A549 NSCLC): 56.7 µM
TGI (DU-145 prostate): 23.7 µM
TGI (MDA-MB-231 breast): 16.5 µM
TGI (SF-539 CNS): 6.44 µM
TGI (MOLT-4 leukemia): > 20.1 µM
TGI (SW-620 colon): 3.35 µM
TGI (OVCAR-8 ovarian): > 54.9 µM
TGI (HCT-116 colon): 18.1 µM
TGI (OVCAR-5 ovarian): 24.8 µM

Cc1ccc([N+](=O)[O-])cc1S(=O)(=O)Nc1ccc(C2=NN(C(=O)c3ccccc3)C(c3ccccc3O)C2)cc1 (centres undefined)
TGI (NCI-H522 lung): 28.6 µM
TGI (A549 NSCLC): 74.4 µM
TGI (DU-145 prostate): 41.5 µM
TGI (MDA-MB-231 breast): 37.7 µM
TGI (SF-539 CNS): 38.4 µM
TGI (MOLT-4 leukemia): 51.5 µM
TGI (SW-620 colon): > 100 µM
TGI (OVCAR-8 ovarian): 57.7 µM
TGI (HCT-116 colon): 28.4 µM
TGI (OVCAR-5 ovarian): 60.6 µM

Oc1ccc(Cl)cc1C1=Nn2c(COc3ccc4c(c3)CCCC4)nnc2SC1
TGI (NCI-H522 lung): 21.6 µM
TGI (A549 NSCLC): 92.9 µM
TGI (DU-145 prostate): 40 µM
TGI (MDA-MB-231 breast): 34.2 µM
TGI (SF-539 CNS): 33.4 µM
TGI (MOLT-4 leukemia): 43.8 µM
TGI (SW-620 colon): 33 µM
TGI (OVCAR-8 ovarian): 30.9 µM
TGI (HCT-116 colon): 19.4 µM
TGI (OVCAR-5 ovarian): 34.6 µM

C=C(CN(C)C)C(=O)c1ccccc1Cl
TGI (NCI-H522 lung): 15.6 µM
TGI (A549 NSCLC): > 100 µM
TGI (DU-145 prostate): > 100 µM
TGI (SF-539 CNS): > 54.6 µM
TGI (MOLT-4 leukemia): > 75.2 µM
TGI (SW-620 colon): 27.7 µM
TGI (OVCAR-8 ovarian): 45.2 µM
TGI (HCT-116 colon): 34 µM
TGI (OVCAR-5 ovarian): > 60.4 µM

CC(C)(C)COS(=O)OCC(C)(C)C
TGI (NCI-H522 lung): > 100 µM
TGI (A549 NSCLC): > 100 µM
TGI (DU-145 prostate): > 100 µM
TGI (MDA-MB-231 breast): > 100 µM
TGI (SF-539 CNS): > 100 µM
TGI (MOLT-4 leukemia): > 100 µM
TGI (SW-620 colon): > 100 µM
TGI (OVCAR-8 ovarian): > 100 µM
TGI (HCT-116 colon): > 100 µM
TGI (OVCAR-5 ovarian): > 100 µM

CN(CCc1ccccn1)c1ccc2c(c1)Cc1ccccc1-2
TGI (NCI-H522 lung): 62.1 µM
TGI (A549 NSCLC): > 100 µM
TGI (DU-145 prostate): > 100 µM
TGI (MDA-MB-231 breast): 21.9 µM
TGI (MOLT-4 leukemia): > 100 µM
TGI (SW-620 colon): > 100 µM
TGI (OVCAR-8 ovarian): 77.8 µM
TGI (HCT-116 colon): > 100 µM
TGI (OVCAR-5 ovarian): > 100 µM

OC1CCSc2ccccc21 (centres undefined)
TGI (NCI-H522 lung): > 100 µM
TGI (A549 NSCLC): > 100 µM
TGI (SF-539 CNS): > 100 µM
TGI (MOLT-4 leukemia): > 100 µM
TGI (SW-620 colon): > 100 µM
TGI (OVCAR-8 ovarian): > 100 µM
TGI (HCT-116 colon): > 100 µM
TGI (OVCAR-5 ovarian): > 100 µM

CCOC(=O)c1cccc(N=Nc2ncc(/C=C/C(=O)OC)[nH]2)c1
TGI (NCI-H522 lung): 47.2 µM
TGI (A549 NSCLC): > 100 µM
TGI (DU-145 prostate): > 100 µM
TGI (MDA-MB-231 breast): > 100 µM
TGI (SF-539 CNS): > 100 µM
TGI (MOLT-4 leukemia): 28.9 µM
TGI (SW-620 colon): > 100 µM
TGI (OVCAR-8 ovarian): 63.6 µM
TGI (HCT-116 colon): 69.7 µM
TGI (OVCAR-5 ovarian): > 100 µM

NC(N)=N/N=C/c1c(-c2cccs2)nc2n1CCS2
GI50 (NCI-H522 lung): 38.2 µM
TGI (NCI-H522 lung): > 100 µM
GI50 (A549 NSCLC): > 100 µM
TGI (A549 NSCLC): > 100 µM
GI50 (MDA-MB-231 breast): 13.7 µM
TGI (MDA-MB-231 breast): 33.4 µM
GI50 (SF-539 CNS): 19.2 µM
TGI (SF-539 CNS): 33.3 µM
GI50 (MOLT-4 leukemia): 13.9 µM
TGI (MOLT-4 leukemia): 28.5 µM
GI50 (SW-620 colon): 17.9 µM
TGI (SW-620 colon): 41.7 µM
GI50 (OVCAR-8 ovarian): 46.5 µM
TGI (OVCAR-8 ovarian): > 100 µM

CC(C)C(=O)CC(c1ccc(Br)cc1)N1N=C(C(C)C)CC1c1ccc(Br)cc1 (centres undefined)
TGI (NCI-H522 lung): > 100 µM
TGI (A549 NSCLC): > 100 µM
TGI (SF-539 CNS): > 100 µM
TGI (MOLT-4 leukemia): > 100 µM
TGI (SW-620 colon): > 100 µM
TGI (OVCAR-8 ovarian): > 100 µM
TGI (HCT-116 colon): > 100 µM
TGI (OVCAR-5 ovarian): > 100 µM

CS(=O)(=O)Nc1cccc(-c2ccc3ncnc(Nc4cncc(Cl)c4)c3c2)c1
GI50 (NCI-H522 lung): 1.75 µM
TGI (NCI-H522 lung): 4.93 µM
GI50 (A549 NSCLC): 2.5 µM
TGI (A549 NSCLC): > 100 µM
GI50 (DU-145 prostate): 1.16 µM
TGI (DU-145 prostate): > 100 µM
GI50 (SF-539 CNS): 2.06 µM
TGI (SF-539 CNS): 5.82 µM
GI50 (MOLT-4 leukemia): 2.38 µM
TGI (MOLT-4 leukemia): 7.61 µM
GI50 (OVCAR-8 ovarian): 3.22 µM
TGI (OVCAR-8 ovarian): > 100 µM
GI50 (OVCAR-5 ovarian): 2.05 µM
TGI (OVCAR-5 ovarian): > 100 µM

O=S(C(c1ccccc1)=P(c1ccccc1)(c1ccccc1)c1ccccc1)c1ccc(Cl)cc1 (centres undefined)
TGI (NCI-H522 lung): 38.6 µM
TGI (DU-145 prostate): 42.7 µM
TGI (MDA-MB-231 breast): 70 µM
TGI (SF-539 CNS): > 100 µM
TGI (MOLT-4 leukemia): > 100 µM
TGI (SW-620 colon): > 100 µM
TGI (OVCAR-8 ovarian): > 100 µM
TGI (HCT-116 colon): 79.5 µM
TGI (OVCAR-5 ovarian): > 100 µM

O=C1CNc2cc(N3CCCCC3)ccc2N1
TGI (NCI-H522 lung): > 100 µM
TGI (A549 NSCLC): > 100 µM
TGI (DU-145 prostate): > 100 µM
TGI (SF-539 CNS): > 100 µM
TGI (MOLT-4 leukemia): > 100 µM
TGI (SW-620 colon): > 100 µM
TGI (OVCAR-8 ovarian): > 100 µM
TGI (OVCAR-5 ovarian): > 100 µM

CCOC(=O)/C=C/C1=C(Br)[C@@]2(C)CC[C@@H]3c4ccc(O)cc4CC[C@H]3[C@@H]2C1
TGI (NCI-H522 lung): 14.2 µM
TGI (A549 NSCLC): 30.5 µM
TGI (DU-145 prostate): 19.1 µM
TGI (SF-539 CNS): 30.7 µM
TGI (MOLT-4 leukemia): 43.2 µM
TGI (SW-620 colon): 37.3 µM
TGI (HCT-116 colon): 26.6 µM
TGI (OVCAR-5 ovarian): 28.5 µM
